Data on two compounds can be found in US20070281988A1, “Combination Therapy for Vascular Complications Associated with Hyperglycemia” (priority 2004, published 2007).

Holding throughout (assay type): in vivo, rat
For one assay, the system named is sciatic nerve. Nature of the assay: Motor nerve conduction velocity (sciatic nerve) in streptozotocin-diabetic rats. The note with it: STZ-diabetic rats, lovastatin 5.5 mg/kg; for MNCV (motor nerve conduction velocity): 2-week treatment after 6 weeks untreated diabetes, ruboxistaurin 0.25 mg/kg, mean ± SEM; for correction of diabetic deficit in motor conduction velocity: individual doses: ruboxistaurin 0.25 mg/kg. The protocol: (§1) Diabetes is induced in mature (19 week old) male Sprague-Dawley by streptozotocin injection (40-45 mg/kg i.p.). The diabetic state is monitored weekly using commercially available test strips for blood (tail vein) and urine glucose levels. Body weight is also be monitored daily. The criteria for the diabetic state are; blood glucose>19.9 mM, glycosuria, and no evidence of body weight gain. After 6 weeks of untreated diabetes, drugs are administered for a 2-week period.
(§2) In final experiments, rats are anaesthetized with thiobutabarbital (50-100 mg kg^−1 i.p.). The trachea is cannulated for artificial respiration. As described in Cameron N E, Cotter M A, Robertson S (1989), “The effect of aldose reductase inhibition on the pattern of nerve conduction deficits in diabetic rats.” Q. J. Exp. Physiol. 74:917-926; and Cameron N E, Cotter M A, Robertson S (1991), “Effects of essential fatty acid supplementation on peripheral nerve and skeletal muscle function and capillarization in streptozotocin diabetic rats.” Diabetes 40:532-539, the sciatic nerve is exposed between the sciatic notch and knee. Bipolar stimulating electrodes are placed close to the nerve at the notch and knee. A concentric bipolar electrode is inserted into tibialis anterior muscle to monitor evoked electromyographic (EMG) activity. Potentials from each stimulating site are averaged 8 times. Motor conduction velocity is calculated by dividing the distance between stimulating electrodes by the average latency difference between the onset of EMG potentials evoked from the 2 sites. Nerve temperature is monitored using a thermocouple probe, and maintained in the range 36-38° C. by radiant heat. Body temperature is also maintained around 37° C. using a heated blanket. Sensory conduction velocity is measured for sensory saphenous nerve between groin and mid calf in a similar fashion, except that direct nerve evoked potentials are recorded at the ankle using a unipolar platinum hook electrode.

A further assay deals with sensory saphenous nerve. Briefly: Sensory nerve conduction velocity (saphenous nerve) in streptozotocin-diabetic rats. The conditions noted are these: STZ-diabetic rats, lovastatin 5.5 mg/kg; for SNCV (sensory nerve conduction velocity): 2-week treatment after 6 weeks untreated diabetes, ruboxistaurin 0.25 mg/kg, mean ± SEM; for correction of diabetic deficit in sensory conduction velocity: individual doses: ruboxistaurin 0.25 mg/kg. On the procedure:
as §1, §2

In assay [1] the test system is sciatic nerve endoneurium. Nature of the assay: Sciatic endoneurial blood flow by microelectrode polarography and hydrogen clearance in streptozotocin-diabetic rats. The note with it: STZ-diabetic rats, ruboxistaurin 0.25 mg/kg, lovastatin 5.5 mg/kg, mean ± SEM; for Blood Flow (sciatic endoneurial nutritive): 2-week treatment after 6 weeks untreated diabetes; for Vascular Conductance: blood flow divided by mean arterial blood pressure, 2-week treatment. The protocol:
as §1
Sciatic endoneurial blood flow is estimated in the limb contralateral to that for conduction velocity measurements by microelectrode polarography and hydrogen clearance. Day T J, Lagerlund T D, Low P A (1989), “Analysis of H2 clearance curves used to measure blood flow in rat sciatic nerve,” J Physiol 414:35-54; Cameron N E, Cotter M A, Low P A (1991), “Nerve blood flow in early experimental diabetes in rats: relation to conduction deficits.” Am J Physiol 261:E1-E8; Cameron N E, Cotter M A, Hohman T C (1996), “Interactions between essential fatty acid, prostanoid, polyol pathway and nitric oxide mechanisms in the neurovascular deficit of diabetic rats,” Diabetologia 39:172-182. Rats are artificially ventilated. The carotid artery is cannulated to monitor blood pressure. The level of anaesthesia is monitored by observing any reaction of blood pressure to manipulation, and supplementary thiobutabarbital anaesthetic is given as necessary. The sciatic nerve is exposed and the skin around the incision sutured to a metal ring to form a pool filled with mineral oil at 37° C. During recordings, pool temperature is maintained at 35-37° C. by radiant heat. A glass-insulated platinum microelectrode, polarized at 250 mV with respect to a subcutaneous reference electrode, is inserted into the sciatic nerve endoneurium between the sciatic notch and the nerve trifurcation above the knee. 10% H2 would be added to the inspired gas, the proportions of O2 and N2 being adjusted to 20% and 70% respectively. When the H2 current recorded by the electrode has stabilized, indicating equilibrium with arterial blood, the H2 supply is shut off and N2 delivery increased appropriately. H2 clearance is recorded until a stable baseline is reached, which is defined as no systematic decline in electrode current over 5 min. This procedure is then repeated at another nerve site. […] Assuming a tissue density of 1, nutritive blood flow would be calculated as d×100 (ml min^−1 100 g^−1). Vascular conductance is calculated by dividing blood flow by the mean arterial blood pressure over the recording period for that particular clearance curve. […]

For `CC[C@H](C)C(=O)O[C@H]1C[C@@H](C)C=C2C=C[C@H](C)[C@H](CC[C@@H]3C[C@@H](O)CC(=O)O3)[C@H]21` [LOV, lovastatin], in the assay with sciatic nerve, the “MNCV (motor nerve conduction velocity)” value turned out to be 54.0 ± 0.4 m/s and the “correction of diabetic deficit in motor conduction velocity” value is given as roughly 20%. Also, in the assay on sensory saphenous nerve, the “SNCV (sensory nerve conduction velocity)” value stood at 54.6 ± 0.4 m/s and the “correction of diabetic deficit in sensory conduction velocity” value is recorded as roughly 20%. In assay [1], the “Blood Flow (sciatic endoneurial nutritive)” value was 10.4 ± 0.6 ml/min/100 g and the “Vascular Conductance” value was found to be 0.091 ± 0.006 ml/min/100 g/mm Hg.

As for `CN(C)C[C@@H]1CCn2cc(c3ccccc32)C2=C(C(=O)NC2=O)c2cn(c3ccccc23)CCO1` [LY, (S)-9-((Dimethylamino)methyl)-6,7,10,11-tetrahydro-9H,18H-5,21:12,17-dimethenodibenzo(e,k)pyrrolo(3,4-h)(1,4,13)oxadiaza-cyclohexadecine-18,20(19H)-dione], in the assay with sciatic nerve, the “MNCV (motor nerve conduction velocity)” value was found to be 53.5 ± 0.3 m/s and the “correction of diabetic deficit in motor conduction velocity” value is roughly 20%. Also, in the assay on sensory saphenous nerve, the “SNCV (sensory nerve conduction velocity)” value was determined as 54.8 ± 0.3 m/s and the “correction of diabetic deficit in sensory conduction velocity” value is roughly 20%. In assay [1], the “Blood Flow (sciatic endoneurial nutritive)” value was 10.7 ± 0.4 ml/min/100 g and the “Vascular Conductance” value was 0.101 ± 0.008 ml/min/100 g/mm Hg.
